Measured values reported in PubChem BioAssay (NCI).
Several values for one entry are separate records, joined by “and”; a condition that tells them apart may be missing. Equal entries are not always repeated.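 Five compound concentrations were applied to cells in 96-well plates for 48 hours; endpoints were derived by simple linear interpolation of the resulting dose-response curve. GI50 marks 50% less growth. Definition used: TGI = concentration required for complete inhibition of growth.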

How the values were obtained:
Test in all cases: NCI tumour cell line growth inhibition, 48 h
NCI-H522 lung = test system: NCI-H522 lung
CAKI-1 renal = test system: CAKI-1 renal
EKVX NSCLC = test system: EKVX NSCLC
HCT-116 colon = test system: HCT-116 colon
U251 CNS = test system: U251 CNS
RPMI-8226 leukemia = test system: RPMI-8226 leukemia
M14 melanoma = test system: M14 melanoma
DU-145 prostate = test system: DU-145 prostate
UACC-62 melanoma = test system: UACC-62 melanoma
T-47D breast = test system: T-47D breast

CC(=O)Nc1sccc1S(=O)(=O)c1ccc(Cl)cc1
TGI (NCI-H522 lung): > 100 µM | TGI (CAKI-1 renal): > 100 µM | TGI (EKVX NSCLC): > 100 µM | TGI (HCT-116 colon): > 100 µM | TGI (U251 CNS): > 100 µM | TGI (RPMI-8226 leukemia): > 100 µM | TGI (M14 melanoma): > 100 µM | TGI (DU-145 prostate): > 100 µM | TGI (UACC-62 melanoma): > 100 µM | TGI (T-47D breast): > 100 µM

C=C(Cl)C(Cl)(CBr)CCC(Br)C(C)(C)Cl (stereo not given)
TGI (NCI-H522 lung): 34.9 µM and 27.1 µM and 28.9 µM | TGI (CAKI-1 renal): 2.36 µM and 1.99 µM and 2.1 µM | TGI (EKVX NSCLC): 7.36 µM and 4.19 µM and 12.8 µM | TGI (HCT-116 colon): 1.77 µM and 1.61 µM and 5.75 µM | TGI (U251 CNS): 2.08 µM and 0.925 µM and 2.71 µM | TGI (RPMI-8226 leukemia): 1.33 µM and 1.56 µM and 3.22 µM | TGI (M14 melanoma): 42.2 µM and 33.5 µM and > 74 µM | TGI (DU-145 prostate): 3.86 µM and 3.1 µM and 7.05 µM | TGI (UACC-62 melanoma): 12 µM and 15.2 µM and 2.68 µM | TGI (T-47D breast): 2.99 µM and 5.16 µM and 1.25 µM

CC(=O)O[C@H]1C[C@@H](OC(C)=O)[C@@](C)(O)[C@@H]2[C@@H](OC(C)=O)[C@@]3(O)[C@H](/C=C(/CCl)[C@H]4O[C@H]4[C@@H](OC(C)=O)[C@@]12C)OC(=O)[C@@H]3C
TGI (NCI-H522 lung): > 25 µM | TGI (CAKI-1 renal): > 25 µM | TGI (EKVX NSCLC): > 25 µM | TGI (HCT-116 colon): > 25 µM | TGI (U251 CNS): > 25 µM | TGI (RPMI-8226 leukemia): > 25 µM | TGI (M14 melanoma): > 25 µM | TGI (DU-145 prostate): > 25 µM | TGI (UACC-62 melanoma): > 25 µM | TGI (T-47D breast): > 25 µM

COc1ccc2c(C(=O)c3c(C)n(CCN4CCOCC4)c4ccccc34)cccc2c1
TGI (NCI-H522 lung): 50.2 µM | TGI (CAKI-1 renal): > 100 µM | TGI (EKVX NSCLC): > 100 µM | TGI (HCT-116 colon): > 100 µM | TGI (U251 CNS): 52.2 µM | TGI (RPMI-8226 leukemia): 83.6 µM | TGI (M14 melanoma): 87.7 µM | TGI (DU-145 prostate): > 100 µM | TGI (UACC-62 melanoma): > 100 µM | TGI (T-47D breast): > 100 µM

CCCCC1Cc2cc(OC)ccc2-c2n1c1cc(OC)ccc1[n+]2C (stereo not given) (tested in a mixture with another compound)
TGI (NCI-H522 lung): 6.85 µM | TGI (CAKI-1 renal): > 100 µM | TGI (EKVX NSCLC): 20.2 µM | TGI (HCT-116 colon): > 39.9 µM | TGI (U251 CNS): > 26.5 µM | TGI (RPMI-8226 leukemia): 2.17 µM | TGI (M14 melanoma): 25.7 µM | TGI (DU-145 prostate): > 64.1 µM | TGI (UACC-62 melanoma): 3.03 µM | TGI (T-47D breast): 45.1 µM

Cc1cc(C)nc(NC(=S)Nc2ccc(Cl)cc2)c1
TGI (NCI-H522 lung): 39.1 µM | TGI (CAKI-1 renal): > 100 µM | TGI (EKVX NSCLC): > 100 µM | TGI (HCT-116 colon): > 100 µM | TGI (U251 CNS): > 100 µM | TGI (RPMI-8226 leukemia): > 100 µM | TGI (M14 melanoma): > 100 µM | TGI (DU-145 prostate): > 100 µM | TGI (UACC-62 melanoma): > 100 µM | TGI (T-47D breast): > 100 µM

COC(=O)c1ccccc1/C=C1\Cc2ccc3ccccc3c2C1C (stereo not given)
TGI (NCI-H522 lung): > 100 µM | TGI (CAKI-1 renal): > 100 µM | TGI (EKVX NSCLC): > 100 µM | TGI (HCT-116 colon): 46.1 µM | TGI (U251 CNS): > 100 µM | TGI (RPMI-8226 leukemia): > 100 µM | TGI (M14 melanoma): > 100 µM | TGI (DU-145 prostate): > 100 µM | TGI (UACC-62 melanoma): > 100 µM | TGI (T-47D breast): 69 µM

CCCCCC(/C=C/[C@@H]1[C@@H](C(O)CCCCCC(=O)OC)C(=O)C[C@H]1O[Si](C)(C)C(C)(C)C)OCOCCOC (stereo not given in full)
TGI (NCI-H522 lung): 14.5 µM | TGI (CAKI-1 renal): 32.2 µM | TGI (EKVX NSCLC): 37.6 µM | TGI (HCT-116 colon): 16.1 µM | TGI (U251 CNS): 27.4 µM | TGI (RPMI-8226 leukemia): > 25.7 µM | TGI (M14 melanoma): 37.1 µM | TGI (DU-145 prostate): 36.9 µM | TGI (UACC-62 melanoma): 27.5 µM | TGI (T-47D breast): 51.8 µM

CCN(CC)C(=S)SSCCO
GI50 (NCI-H522 lung): 0.211 µM | TGI (NCI-H522 lung): 20.3 µM | GI50 (CAKI-1 renal): 13.6 µM | TGI (CAKI-1 renal): 27.5 µM | GI50 (EKVX NSCLC): 20.1 µM | TGI (EKVX NSCLC): 39.7 µM | GI50 (HCT-116 colon): 14.6 µM | TGI (HCT-116 colon): 27.7 µM | GI50 (U251 CNS): 16.7 µM | TGI (U251 CNS): 37.5 µM | GI50 (RPMI-8226 leukemia): 14.4 µM | TGI (RPMI-8226 leukemia): 39.5 µM | GI50 (M14 melanoma): 14.2 µM | TGI (M14 melanoma): 27.5 µM | GI50 (DU-145 prostate): 37.8 µM | TGI (DU-145 prostate): > 100 µM | GI50 (UACC-62 melanoma): 15.3 µM | TGI (UACC-62 melanoma): 29.2 µM | GI50 (T-47D breast): 15.4 µM | TGI (T-47D breast): 34.2 µM

CN(CCCNC(=O)c1c2ccc3ccccc3c2nn1C)CCCNC(=O)c1c2ccc3ccccc3c2nn1C
TGI (NCI-H522 lung): 19.7 µM | TGI (CAKI-1 renal): 15.3 µM | TGI (EKVX NSCLC): 22.3 µM | TGI (HCT-116 colon): 28 µM | TGI (U251 CNS): 22.1 µM | TGI (RPMI-8226 leukemia): 4.86 µM | TGI (M14 melanoma): 3.99 µM | TGI (DU-145 prostate): 44.4 µM | TGI (UACC-62 melanoma): 3.76 µM | TGI (T-47D breast): 32.2 µM

CCOC(=O)C1=C(C)N(CC(C)C)C2(O)C(OC)CC(=O)C3C(=O)N(c4ccccc4)C(=O)C132 (stereo not given)
TGI (NCI-H522 lung): 34.5 µM | TGI (CAKI-1 renal): 98.7 µM | TGI (EKVX NSCLC): > 100 µM | TGI (HCT-116 colon): > 100 µM | TGI (U251 CNS): > 100 µM | TGI (RPMI-8226 leukemia): > 100 µM | TGI (M14 melanoma): > 100 µM | TGI (DU-145 prostate): > 100 µM | TGI (UACC-62 melanoma): 47.6 µM | TGI (T-47D breast): > 100 µM

O=C1Nc2ccccc2C1S(=O)(=O)c1ccccc1 (stereo not given)
TGI (NCI-H522 lung): > 100 µM | TGI (CAKI-1 renal): > 100 µM | TGI (EKVX NSCLC): > 100 µM | TGI (HCT-116 colon): > 100 µM | TGI (U251 CNS): > 100 µM | TGI (RPMI-8226 leukemia): > 100 µM | TGI (M14 melanoma): > 100 µM | TGI (DU-145 prostate): > 100 µM | TGI (UACC-62 melanoma): > 100 µM | TGI (T-47D breast): > 100 µM

COc1cccc(Nc2nc(NS(=O)(=O)c3cc(C)c(Cl)cc3S)n[nH]2)c1
TGI (NCI-H522 lung): > 100 µM | TGI (CAKI-1 renal): > 100 µM | TGI (EKVX NSCLC): > 100 µM | TGI (HCT-116 colon): > 100 µM | TGI (U251 CNS): > 100 µM | TGI (RPMI-8226 leukemia): > 100 µM | TGI (M14 melanoma): > 100 µM | TGI (DU-145 prostate): > 100 µM | TGI (UACC-62 melanoma): > 100 µM | TGI (T-47D breast): > 100 µM

CC(=O)N1c2ccccc2[C@H]2CCc3c([nH]c4ccccc34)[C@H]21
TGI (NCI-H522 lung): 51.3 µM | TGI (CAKI-1 renal): 64.4 µM | TGI (EKVX NSCLC): 49 µM | TGI (HCT-116 colon): 11.4 µM | TGI (U251 CNS): 26.5 µM | TGI (RPMI-8226 leukemia): 43.5 µM | TGI (M14 melanoma): 30.9 µM | TGI (DU-145 prostate): 61.9 µM | TGI (UACC-62 melanoma): 27.7 µM | TGI (T-47D breast): 96.9 µM

COC(=O)[C@]1(C)[C@H]2C[C@H]3O[C@H]4[C@H](O)[C@@H](O)OC(CC(O)C(C5=CC(=O)OC5)C(C5=CC(=O)OC5)C(O)CC56CCCCC7[C@@H](C)[C@H](C[C@H]8[C@](C)(C(=O)OC)[C@H](O)CC[C@]78C)O[C@H]([C@@H](O)[C@H](O)O5)[C@H]6O)(CCCCC([C@@H]3C)[C@]2(C)CC[C@@H]1O)[C@H]4O (stereo not given in full)
TGI (NCI-H522 lung): 0.0558 µM | TGI (CAKI-1 renal): 0.849 µM | TGI (EKVX NSCLC): 0.224 µM | TGI (HCT-116 colon): 0.53 µM | TGI (U251 CNS): 1.09 µM | TGI (RPMI-8226 leukemia): 0.539 µM | TGI (M14 melanoma): 1.16 µM | TGI (DU-145 prostate): 0.219 µM | TGI (UACC-62 melanoma): 0.779 µM | TGI (T-47D breast): 6.62 µM
